In US20240025906A1 (NEURON23, INC., priority 2022, published 2024):
Like-named read-outs stand apart in the source and are kept apart here.

What was measured:
[1] = tested on: JAK1/TYK2 pSTAT5 (Tyr694/699) in THP-1 cell line; experiment: IFNa-stimulated JAK1/TYK2 pSTAT5 (Tyr694/699) inhibition cellular assay, AlphaLISA; assay type: cell-based; details: THP-1 cells, IFNa-stimulated, AlphaLISA (Assay B), read-out: Cellular_THP1_IFNa-pSTATS_TYK2
Outline: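 Compound dilutions were dispensed first, and HBSS-suspended THP-1 cells were added on top (final top concentration 10000 nM, 6-fold series). After 1 h at 37 °C, IFNa (100 ng/mL as added) was applied for 30 min. Cells were then lysed and pSTAT5 was quantified by AlphaLISA.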

TYK2 JH2 = biological target: T1, TYK2 JH2 (Homo sapiens, UniProt P29597); experiment: TYK2 JH2 binding assay (KINOMEscan KdELECT competitive binding); details: TYK2 JH2 domain, DiscoverX KINOMEscan KdELECT (Assay A); read-out: Biochemical TYK2_DiscoverX_JH2_BND_Kd
T1 construct: purchased DiscoverX (KINOMEscan KdELECT service); host or cells: E. coli BL21-derived (T7 phage display) or HEK-293
Outline: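 Beads carrying a biotinylated ligand were mixed with tagged JH2 kinase and compound (11 points, 3-fold steps, 0.9% DMSO) and shaken 1 h at room temperature. After washing, kinase was released with 0.5 μM untagged ligand over 30 min and measured by qPCR to derive Kd.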

T1 sequence (P29597 589-875 limits assumed): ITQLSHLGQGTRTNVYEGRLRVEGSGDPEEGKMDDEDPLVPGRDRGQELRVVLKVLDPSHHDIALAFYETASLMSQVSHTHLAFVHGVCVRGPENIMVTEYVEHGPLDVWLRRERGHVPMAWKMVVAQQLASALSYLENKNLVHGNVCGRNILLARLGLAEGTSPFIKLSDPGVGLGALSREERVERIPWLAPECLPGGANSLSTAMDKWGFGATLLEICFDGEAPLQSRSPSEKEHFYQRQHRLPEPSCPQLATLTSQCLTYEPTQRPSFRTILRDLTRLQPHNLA

IC50 ([1]; Homo sapiens) [nM]	Kd (TYK2 JH2) [nM]	IC50 [1] [nM]	SMILES
≤ 500	≤ 100		CNc1ncc(-c2nc3ccc(N4CCO[C@@H](C)C4)cn3n2)c2cc(NC(=O)C3(F)CC3)ncc12 [Example 540, (S)-1-fluoro-N-(8-(methylamino)-5-(6-(2-methylmorpholino)-[1,2,4]triazolo[1,5-a]pyridin-2-yl)-2,7-naphthyridin-3-yl)cyclopropane-1-carboxamide]
≤ 500	≤ 100		CNc1ncc(-c2nc3ccc(N4CCO[C@@H](C)C4)cn3n2)c2cc(Nc3ccccn3)ncc12 [Example 543, (S)—N^1-methyl-4-(6-(2-methylmorpholino)-[1,2,4]triazolo[1,5-a]pyridin-2-yl)-N^6-(pyridin-2-yl)-2,7-naphthyridine-1,6-diamine]
≤ 500	≤ 100		CNc1ncc(-c2nc3ccc(N4CCO[C@@H](C)C4)cn3n2)c2cc(Nc3cc(C)n(C)n3)ncc12 [Example 544, (S)—N^6-(1,5-dimethyl-1H-pyrazol-3-yl)-N^1-methyl-4-(6-(2-methylmorpholino)-[1,2,4]triazolo[1,5-a]pyridin-2-yl)-2,7-naphthyridine-1,6-diamine]
≤ 500	≤ 100		CNc1ncc(-c2nc3ccc(N4CCO[C@@H](C)C4)cn3n2)c2cc(Nc3ccn(C)n3)ncc12 [Example 545, (S)—N^1-methyl-N^6-(1-methyl-1H-pyrazol-3-yl)-4-(6-(2-methylmorpholino)-[1,2,4]triazolo[1,5-a]pyridin-2-yl)-2,7-naphthyridine-1,6-diamine]
≤ 500	≤ 100		CNc1ncc(-c2nc3ccc(N4CCO[C@H](C)C4)cn3n2)c2cc(NC(=O)[C@@H]3C[C@@H]3C)ncc12 [Example 546, (1R,2S)-2-methyl 1N-(8-(methylamino)-5-(6-((R)-2-methylmorpholino)-[1,2,4]triazolo[1,5-a]pyridin-2-yl)-2,7-naphthyridin-3-yl)cyclopropane-1-carboxamide]
≤ 500	≤ 100		CNc1ncc(-c2nc3ccc(N4CCO[C@H](C)C4)cn3n2)c2cc(NC(=O)[C@H]3C[C@H]3C)ncc12 [Example 547, (1S,2R)-2-methyl-N-(8-(methylamino)-5-(6-((R)-2-methylmorpholino)-[1,2,4]triazolo[1,5-a]pyridin-2-yl)-2,7-naphthyridin-3-yl)cyclopropane-1-carboxamide]
≤ 500	≤ 100		CNc1ncc(-c2nc3ccc(N4CCO[C@H](C)C4)cn3n2)c2cc(NC(=O)[C@H]3C[C@H]3F)ncc12 [Example 548, (1R,2R)-2-fluoro-N-(8-(methylamino)-5-(6-((R)-2-methylmorpholino)-[1,2,4]triazolo[1,5-a]pyridin-2-yl)-2,7-naphthyridin-3-yl)cyclopropane-1-carboxamide]
≤ 500	≤ 100		CNc1ncc(-c2nc3ccc(N4CCO[C@H](C)C4)cn3n2)c2cc(NC(=O)[C@@H]3C[C@@H]3F)ncc12 [Example 549, (1S,2S)-2-fluoro-N-(8-(methylamino)-5-(6-((R)-2-methylmorpholino)-[1,2,4]triazolo[1,5-a]pyridin-2-yl)-2,7-naphthyridin-3-yl)cyclopropane-1-carboxamide]
≤ 500	≤ 100		CNc1ncc(-c2nc3ccc(N4CCO[C@H](C)C4)cn3n2)c2cc(NC(=O)C3(F)CC3)ncc12 [Example 550, (R)-1-fluoro-N-(8-(methylamino)-5-(6-(2-methylmorpholino)-[1,2,4]triazolo[1,5-a]pyridin-2-yl)-2,7-naphthyridin-3-yl)cyclopropane-1-carboxamide]
≤ 500	≤ 100		CNc1ncc(-c2nc3ccc(N4CCO[C@H](C)C4)cn3n2)c2cc(Nc3ccccn3)ncc12 [Example 551, (R)—N^1-methyl-4-(6-(2-methylmorpholino)-[1,2,4]triazolo[1,5-a]pyridin-2-yl)-N^6-(pyridin-2-yl)-2,7-naphthyridine-1,6-diamine]
≤ 500	≤ 100		CNc1ncc(-c2nc3ccc(N4CCO[C@H](C)C4)cn3n2)c2cc(NC(=O)NC3CC3)ncc12 [Example 552, (R)-1-cyclopropyl-3-(8-(methylamino)-5-(6-(2-methylmorpholino)-[1,2,4]triazolo[1,5-a]pyridin-2-yl)-2,7-naphthyridin-3-yl)urea]
> 500	≤ 100		CNc1ncc(-c2nc3ccc(N4C[C@@H](C)O[C@@H](C)C4)cn3n2)c2cc(N)ncc12 [Example 553, 4-(6-((2R,6S)-2,6-dimethylmorpholino)-[1,2,4]triazolo[1,5-a]pyridin-2-yl)-N^1-methyl-2,7-naphthyridine-1,6-diamine]
	≤ 100	≤ 500	CNc1ncc(-c2nc3ccc(N4C[C@@H](C)O[C@@H](C)C4)cn3n2)c2cc(NC(=O)[C@@H]3C[C@@H]3F)ncc12 [Example 554, (1S,2S)—N-(5-(6-((2R,6S)-2,6-dimethylmorpholino)-[1,2,4]triazolo[1,5-a]pyridin-2-yl)-8-(methylamino)-2,7-naphthyridin-3-yl)-2-fluoracyclopropane-1-carboxamide]
≤ 500	≤ 100		CNc1ncc(-c2nc3ccc(N4C[C@@H](C)O[C@@H](C)C4)cn3n2)c2cc(NC(=O)[C@H]3C[C@H]3C)ncc12 [Example 555, (1S,2R)-N-(5-(6-((2R,6S)-2,6-dimethylmorpholino)-[1,2,4]triazolo[1,5-a]pyridin-2-yl)-8-(methylamino)-2,7-naphthyridin-3-yl)-2-methylcyclopropane-1-carboxamide]
≤ 500	≤ 100		CNc1ncc(-c2nc3ccc(N4C[C@@H](C)O[C@@H](C)C4)cn3n2)c2cc(NC(=O)CC(F)(F)F)ncc12 [Example 556, N-(5-(6-((2R,6S)-2,6-dimethylmorpholino)-[1,2,4]triazolo[1,5-a]pyridin-2-yl)-8-(methylamino)-2,7-naphthyridin-3-yl)-3,3,3-trifluoropropanamide]
≤ 500	≤ 100		CNc1ncc(-c2nc3ccccn3n2)c2cc(Nc3ccccn3)ncc12 [Example 557, 4-([1,2,4]triazolo[1,5-a]pyridin-2-yl)-N^1-methyl-N^6-(pyridin-2-yl)-2,7-naphthyridine-1,6-diamine]
≤ 500	≤ 100		CNc1ncc(-c2nc3ccc(N4CCC(F)(F)CC4)cn3n2)c2cc(NC(=O)[C@H]3C[C@H]3C)ncc12 [Example 558, (1S,2R)—N-(5-(6-(4,4-difluoropiperidin-1-yl)-[1,2,4]triazolo[1,5-a]pyridin-2-yl)-8-(methylamino)-2,7-naphthyridin-3-yl)-2-methylcyclopropane-1-carboxamide]
≤ 500	≤ 100		CNc1ncc(-c2nc3ccc(N4CC5CN(C)CC(C4)O5)cn3n2)c2cc(NC(=O)C3(F)CC3)ncc12 [Example 559, 1-fluoro-N-(5-(6-(7-methyl-9-oxa-3,7-diazabicyclo[3.3.1]nonan-3-yl)-[1,2,4]triazolo[1,5-a]pyridin-2-yl)-8-(methylamino)-2,7-naphthyridin-3-yl)cyclopropane-1-carboxamide]
≤ 500	≤ 100		CNc1ncc(-c2nc3ccc(N4CC5CN(C)CC(C4)O5)cn3n2)c2cc(NC(=O)[C@H]3C[C@H]3C)ncc12 [Example 560, (1S,2R)-2-methyl-N-(5-(6-(7-methyl-9-oxa-3,7-diazabicyclo[3.3.1]nonan-3-yl)-[1,2,4]triazolo[1,5-a]pyridin-2-yl)-8-(methylamino)-2,7-naphthyridin-3-yl)cyclopropane-1-carboxamide]
≤ 500	≤ 100		CNc1ncc(-c2nc3ccc(C)cn3n2)c2cc(NC(=O)C3CCC3)ncc12 [Example 561, N-(5-(6-methyl-[1,2,4]triazolo[1,5-a]pyridin-2-yl)-8-(methylamino)-2,7-naphthyridin-3-yl)cyclobutanecarboxamide]
≤ 500	≤ 100		CNc1ncc(-c2nc3ccc(C)cn3n2)c2cc(NC(=O)[C@H]3C[C@H]3C)ncc12 [Example 562, (1S,2R)-2-methyl-N-(5-(6-methyl-[1,2,4]triazolo[1,5-a]pyridin-2-yl)-8-(methylamino)-2,7-naphthyridin-3-yl)cyclopropane-1-carboxamide]
≤ 500	≤ 100		CNc1ncc(-c2nc3ccc(N4C[C@H]5C[C@@H]4CO5)cn3n2)c2cc(NC(=O)C3(F)CC3)ncc12 [Example 563, N-(5-(6-((1R,4R)-2-oxa-5-azabicyclo[2.2.1]heptan-5-yl)-[1,2,4]triazolo[1,5-a]pyridin-2-yl)-8-(methylamino)-2,7-naphthyridin-3-yl)-1-fluorocyclopropane-1-carboxamide]
≤ 500	≤ 100		[2H]C([2H])([2H])Nc1ncc(-c2nc3ccccn3n2)c2cc(NC(=O)[C@H]3C[C@H]3F)ncc12 [Example 566, (1R,2R)—N-(5-([1,2,4]triazolo[1,5-a]pyridin-2-yl)-8-((methyl-d3)amino)-2,7-naphthyridin-3-yl)-2-fluorocyclopropane-1-carboxamide]
≤ 500	≤ 100		[2H]C([2H])([2H])Nc1ncc(-c2nc3ccccn3n2)c2cc(NC(=O)[C@@H]3C[C@@H]3F)ncc12 [Example 567, (1S,2S)—N-(5-([1,2,4]triazolo[1,5-a]pyridin-2-yl)-8-((methyl-d3)amino)-2,7-naphthyridin-3-yl)-2-fluorocyclopropane-1-carboxamide]
